The values that follow come from patent publication US11319311B2, “Crystalline forms of Actinomycin D for treatment of cancer” (TRANSGENEX NANOBIOTECH, INC., priority 2018, dated 2022).

Usually IC50 stands for the concentration needed to halve the response being measured.

One data set has as its system PC-3. Put plainly: Monolayer cell culture IC50 (CellTiter-Glo viability), PC-3. The class given is cell-based. Particulars: Prostate, PC-3, monolayer, 72 hours treatment, average of three replications. The protocol:
(§1) Cancer cell lines listed in Table 1 were subjected for testing anti-cancer potency or the half maximal inhibitory concentration (IC50) of the D-Actinomycin (DACT) molecular complexes.
(§2) The SK-ES-1, U-2 OS, and SAOS-2 cells were cultured in a growth medium that is ATCC-formulated McCoy's 5a Medium Modified, Catalog No. 30-2007. The PC-3, PANC-1, SK-Mel-5, A549, H460, and H1299 were cultured in a growth medium that is ATCC-formulated Dulbecco's Modified Eagle's Medium (DMEM), Catalog No. 30-2002. The cells were seeded on 96-well microtiter plates with 3500 cells per well and cultured in an incubator (Model 3120, Thermo Scientific, USA) with a constant temperature at 37° C. and 5% carbon dioxide (CO2) gas for 24 hours.
(§3) The new DACT-molecular complexes were made into a series with concentration of 200 nM to 40 nM, 8 nM, 1.6 nM, 0.32 nM, and 0.064 nM. 100 μl of each solution was then added into each well to bring out the final concentration of the drug treatment at 100 nM, 20 nM, 4 nM, 0.8 nM, 0.16 nM, or 0.032 nM, respectively.
(§4) The treated cells in the 96 well plate was then further cultured at the same conditions for 72 hours and then subjected for a final cell viability measurement. The measurement used a homogeneous method to determine the number of metabolically active cells presented in each of treatments. A testing reagent for the measurement is a mixture solution of the CellTiter-Glo® 2.0 reagent (CTG, Promega Cat #G9243, USA) and growth medium in 1:1 ratio in this respect.
(§5) The 96-well plate with the new molecular complex treated cells was taken out from incubator after the 72 hours of incubation, and the treatment solution in each well was removed using a multichannel pipette, and 100 μl of the testing reagent were added into each well. The plate was then placed on a plate shaker for 15 min. The plate was covered with a piece of aluminum foil to protect the CTG luminescence during the shaking time.
(§6) Then 90 μl of the 100 μl testing reagent were transferred into an opaque-walled 96-well plate for the CTG luminescence reading on a plate reader (SynergyH4 Hybrid Reader, Biotek, USA). The luminescence intensity of each treatment was positively correlated with the number of cells survived during the treatments.
(§7) All the treatment data was normalized by comparing with the control samples that had only growth medium without any molecular complexes. The half maximal inhibitory concentration (IC50) data was calculated using the nonlinear regression model and dose-responses (inhibition) curve built in the software. Each of treatments was performed in three replications each time and repeated three times for validation. The IC50 average […] (Avg) and standard deviation (STDV) were calculated based on the three replications.
In general terms: Cellular ATP, detected with luciferase, serves as a proxy for viable cell number.

Data set [1] deals with human sarcoma cell line SK-ES-1. Put plainly: Tumor sphere formation assay. Type of data set: cell-based. From the text: Cancer stem cells (CSCs) are defined as a small subset of cells within a tumor with the ability to self-renew and often drive tumor progression and recurrence after chemotherapy treatment (Xiaochen Zhou, et al. 2015. A Reliable Parameter to Standardize the Scoring of Stem Cell Spheres. PLOS One 10(5); e0127348). It is important to study the responses of cancer stem cells or the tumors treated with the new molecular complexes. We have assessed cancer stem cells (CSCs) growth using tumor sphere formation assay, which involves culturing cancer cells in low attachment plates in serum free media. Sphere size and diameter was measured using Image) software and statistical analysis was performed using Graph Pad Prism Software.
The stem cell culture medium is prepared for 500 ml (250 ml of Dulbecco's Modified Eagle Medium (DMEM) (ATCC® 30-2002) plus 250 ml of F-12K medium (ATCC® 30-2004)) using 20 ng/ml epidermal growth factor, 10 ng/ml basic fibroblast growth factor, 5 μg/ml insulin and 0.4% Bovine Serum Albumin. All preparation methods known to the person skilled in the art.
The cancer cell line used in this study was human sarcoma cell line SK-ES-1. The cells were seeded in a density of 200 per well per 200 μl in a 96-well Ultra-Low Attachment plate (Corning, Cat #3474, USA), this plate is specially treated for stem cell growth or tumor culture. On the day 1 of seeding, 100 μl of cell solution was added into the plate. […]
On the day 6 of seeding, 10 μl of NucBlue Live Cell Stain ReadyProbes (Invitrogen Cat #R37605, USA) were added into each well for staining to visualize the live cells under the blue fluorescent light. […] Then the plate was brought to the Keyence imaging device (Keyence America, All-in-One Fluorescence Microscope BZ-X800, USA) for image scanning. […]
The sum of sphere image area of every individual sphere, with diameter over 50 μm, in each well was calculated. […] The sphere image area was calculated based on the sum area of spheres with diameter over 50 μm in each treatment well, and significance was declared at P<0.05 for the bars indicated by *, and P<0.001 by **. […]

Data set [2] in a line: Accelerated stability studies (PXRD physical form stability). The class given is physicochemical. Particulars: accelerated conditions 75% humidity and 40° C., one year, by PXRD. The protocol:
Stability studies of the DACT novel forms were conducted using accelerated conditions (75% humidity and 40° C.) of which are obvious to the artisan in the field, for more than one year. […] Selected data of the novel complexes of DACT:methylparaben, propylparaben and diphenic acid proves this point.

For a further data set, the system named is A549. As to the kind of experiment: Monolayer cell culture IC50 (CellTiter-Glo viability), A549. Type of data set: cell-based. Particulars: Lung, 72 hours treatment, average of three replications. The protocol:
as §1, §2, §3, §4, §5, §6, §7

The mark [3] stands for this setting: Test I, read-out: IC50 Test (I) Avg.
The mark [4] stands for this setting: Test II, read-out: IC50 Test (II) Avg.
The mark [5] stands for this setting: Test III, read-out: IC50 Test (III) Avg.

Where two headings read alike, the source gives them in different places.

As for `CCCOC(=O)c1ccc(O)cc1.Cc1c2oc3c(C)ccc(C(=O)NC4C(=O)NC(C(C)C)C(=O)N5CCCC5C(=O)N(C)CC(=O)N(C)C(C(C)C)C(=O)OC4C)c3nc-2c(C(=O)NC2C(=O)NC(C(C)C)C(=O)N3CCCC3C(=O)N(C)CC(=O)N(C)C(C(C)C)C(=O)OC2C)c(N)c1=O` (stereo not shown) [DACT-propylparaben], the IC50 in the data set on PC-3 (setting [3]) worked out at 7.68 nM; with PC-3 (setting [4]), 4.52 nM; in the data set with PC-3 (setting [5]), 6.34 nM; in the data set on A549 (setting [3]), 1.39 nM; in the data set on A549 (setting [4]), 1.74 nM; in the data set with A549 (setting [5]), 1.63 nM. In data set [1] (SK-ES-1 spheres with diameter over 50 μm, day 6 of seeding, compared with pure parent molecule DACT), the sphere area result is recorded as “noticeable reduction in sphere area”. The “tumor spheres size (SSS)” value in data set [1] (compared with that of the parent molecule) is “reduced tumor spheres size (SSS)”. For the same molecule, in data set [1] (compared with the parent molecule), the “tumor sphere formation efficiency (SFE)” value is reported as “reduced tumor sphere formation efficiency (SFE)”. In addition, in data set [2], the physical form stability result was “stable”.
